# Assay results: US5985834A, “Nova- and decapeptides in the preparation of a drug for the treatment of aids” (ASTA Medica AG, priority 1993, dated 1999)
# System: HIV virus
# Assay: Screening method for anti-HIV activity (NCI AIDS screening trial, XTT formazan, protection of virus-infected T4 lymphocytes)
# Format: cell-based
# Details: Human immunodeficiency virus 1, CCRF-CEM, infected culture treated, CEM cells, 6-7 days
# Procedure: Description of the Screening Method for Anti-HIV Activity
# The process is suitable for locating active substances which are effective in all phases of the virus proliferation cycle. The test principle is based on the destruction of the T4 lymphocytes by the HIV virus.
# Small amounts of HIV virus are added to the cell cultures. At least two complete viral reproduction cycles are needed to destroy the T4 lymphocytes and to be able to evaluate the results.
# Active substances that react with virions (virus-like particles), cells or with products of the viral genes in order to interact with viral activities and thus block proliferation of the viruses will protect the cells from destruction and lysis.
# The test system is automated to permit examination of a large number of cells infected with viruses. Compounds which degenerate, denaturise or that are rapidly metabolised cannot, however, be reliably discovered using the test procedure.
# AZT (azidothymidine) and DDC serve as positive controls for the test.
# 1. T4 lymphocytes (CEM cell line) are mixed with virus in the ratio of virus:cell of ca. 1:0.05 in microtiter plates.
# 2. […]
# 5. The individual cell cultures are analysed spectrophotometrically and examined microscopically to detect surviving cells in order to confirm the protective effect. […]
# 7. The activity of the tested compound is determined. […]
smiles,measurement,value
"Cc1cn([C@H]2C[C@H](N=[N+]=[N-])[C@@H](CO)O2)c(=O)[nH]c1=O [AZT, 3'-azido-3'-desoxythymidine]",EC50,3.1 nM
